Counter-ions that a name gives are not always drawn. Like-named read-outs stand apart in the source and are kept apart here.
What was measured:
[1] = target: T1, CYP2C9 (Homo sapiens, UniProt P11712); experiment: P450-Glo CYP2C9 activity in HBV-infected HepaRG cells
[2] = target: T2, CYP3A4 (Homo sapiens, UniProt P08684); experiment: P450-Glo CYP3A4 activity in HBV-infected HepaRG cells; format: cell-based; conditions: day 11 p.i.
T2 construct: CYP1A2, CYP2C9, and CYP3A4 activity were determined in HBV-infected HepaRG cells; endogenous in cells; host or cells: differentiated HepaRG cells infected with HBV

[3] = target: T3, CYP1A2 (Homo sapiens, UniProt P05177); experiment: P450-Glo CYP1A2 activity in HBV-infected HepaRG cells; format: cell-based; conditions: day 11 p.i.
T3 construct: CYP1A2, CYP2C9, and CYP3A4 activity were determined in HBV-infected HepaRG cells; endogenous in cells; host or cells: differentiated HepaRG cells infected with HBV
T3 sequence (P05177 1-516): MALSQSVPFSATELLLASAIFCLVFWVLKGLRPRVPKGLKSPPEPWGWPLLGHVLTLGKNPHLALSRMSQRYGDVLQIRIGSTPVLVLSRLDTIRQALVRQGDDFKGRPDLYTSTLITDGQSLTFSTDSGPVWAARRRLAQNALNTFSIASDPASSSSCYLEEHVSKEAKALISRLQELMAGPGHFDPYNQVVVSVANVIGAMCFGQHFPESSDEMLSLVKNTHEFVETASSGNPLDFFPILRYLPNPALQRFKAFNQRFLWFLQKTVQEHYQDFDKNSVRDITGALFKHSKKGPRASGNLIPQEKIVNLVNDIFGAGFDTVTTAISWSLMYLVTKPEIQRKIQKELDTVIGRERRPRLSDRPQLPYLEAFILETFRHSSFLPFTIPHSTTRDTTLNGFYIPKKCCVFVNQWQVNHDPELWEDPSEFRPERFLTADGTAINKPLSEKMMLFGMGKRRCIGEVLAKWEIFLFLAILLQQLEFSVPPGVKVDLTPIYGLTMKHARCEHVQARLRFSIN

[4] = target: T1, CYP2C9
[5] = ABT 10 or 20 mM 1 h twice, or 0.1 or 0.2 mM twice for 3 days (days 5 and 8 p.i.)
[6] = SKF-525A 100 or 200 μM 1 h twice, or 2 or 20 μM twice for 3 days

T1 sequence (P11712 whole entry): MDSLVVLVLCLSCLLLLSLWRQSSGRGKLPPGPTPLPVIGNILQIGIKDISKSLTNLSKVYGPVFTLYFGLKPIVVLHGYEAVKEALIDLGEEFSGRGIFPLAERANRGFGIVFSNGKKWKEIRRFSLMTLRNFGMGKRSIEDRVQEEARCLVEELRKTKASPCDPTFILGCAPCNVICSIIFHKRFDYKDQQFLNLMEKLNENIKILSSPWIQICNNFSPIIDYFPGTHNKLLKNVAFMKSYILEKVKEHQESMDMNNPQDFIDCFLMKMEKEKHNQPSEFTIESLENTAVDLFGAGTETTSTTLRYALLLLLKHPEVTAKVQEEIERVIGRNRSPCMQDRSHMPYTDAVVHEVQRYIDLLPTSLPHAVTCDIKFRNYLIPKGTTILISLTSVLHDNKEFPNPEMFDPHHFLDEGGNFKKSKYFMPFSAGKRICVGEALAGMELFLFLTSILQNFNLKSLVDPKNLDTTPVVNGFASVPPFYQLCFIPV
T2 sequence (P08684 whole entry): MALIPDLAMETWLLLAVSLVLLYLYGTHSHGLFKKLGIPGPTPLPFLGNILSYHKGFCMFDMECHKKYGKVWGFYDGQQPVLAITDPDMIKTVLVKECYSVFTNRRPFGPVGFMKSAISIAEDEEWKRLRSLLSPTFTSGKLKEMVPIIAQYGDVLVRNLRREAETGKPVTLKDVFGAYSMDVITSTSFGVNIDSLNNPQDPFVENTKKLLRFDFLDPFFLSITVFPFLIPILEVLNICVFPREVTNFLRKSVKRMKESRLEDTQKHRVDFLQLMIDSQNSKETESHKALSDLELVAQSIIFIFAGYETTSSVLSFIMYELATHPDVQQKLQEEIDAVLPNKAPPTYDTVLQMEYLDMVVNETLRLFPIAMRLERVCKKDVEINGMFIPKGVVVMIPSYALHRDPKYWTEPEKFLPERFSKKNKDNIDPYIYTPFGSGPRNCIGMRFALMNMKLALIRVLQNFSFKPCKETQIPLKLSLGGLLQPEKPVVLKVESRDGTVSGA

`Nn1nnc2ccccc21` [ABT, 1-aminobenzotriazole] was tested. Which “inhibition of CYP2C9” value ([1]; ABT 10 or 20 mM 1 h twice, or 0.1 or 0.2 mM twice for 3 days (days 5 and 8 p.i.), day 11 p.i.) did it give?
The value was 72%-75%.

What about the “inhibition of CYP3A4” value [2, 5] of the same compound?
Its value is > 90%.

And the “inhibition of CYP1A2” value [3, 5]?
Its value is > 90%.

How did the CYP2C9 inhibition [4] turn out when `CC(=O)N1CCN(c2ccc(OCC3COC(Cn4ccnc4)(c4ccc(Cl)cc4Cl)O3)cc2)CC1` (stereo not shown) [ketoconazole] was run?
The CYP2C9 inhibition was “also inhibit”.

With `Cc1nc2c([nH]1)c(=O)n(C)c(=O)n2Cc1ccco1` [furafylline] as the compound, how does the CYP2C9 inhibition ([1]; furafylline alone, titration) read?
Its CYP2C9 inhibition is “also inhibit”.

With `CCCC(C(=O)OCCN(CC)CC)(c1ccccc1)c1ccccc1` [SKF-525A, proadifen hydrochloride] as the compound, how does the “CYP3A4 inhibition relative to other CYPs” value [2, 6] read?
Its value is “inhibited CYP3A4 better than CYP2C9”.

And the “CYP1A2 inhibition relative to other CYPs” value [3, 6]?
Its value is “inhibited CYP1A2 less”.

— patent US20190234940A1, “METABOLIC RESTRICTION IN CELL-BASED ASSAYS” (priority 2016, published 2019)
